Results reported in publication PMC12833730, “Discovery of a First‐in‐Class Covalent Allosteric SHP1 Inhibitor with Immunotherapeutic Activity” (Angewandte Chemie (International Ed. in English), 2025).
Entries after “also recorded” stand apart in the source; their conditions may differ.

Tested on: MC38 tumors
Assay: CD8+ T cell / NK cell depletion in MC38 syngeneic model
Assay type: in vivo, C57BL/6 mice
Description: To further establish whether the inhibitory effects of M029 on tumor progression could be attributable to enhanced antitumor immune responses, we treated MC38 tumors in nude mice. […] To evaluate the importance of CD8^+ T and NK cells in M029‐induced antitumor activity, we induced CD8^+ T cell or NK cell depletion in the MC38 syngeneic model using anti‐CD8 or anti‐NK1.1 antibodies as described in Figure 6c. […] These findings are consistent with the known role of SHP1 in T cells and with our in vitro data that indicate M029 enhances T cell activation with no direct effect on tumor cells. […] These findings align with previous reports that activated CD8^+ T cells recruit NK cells to tumors through releasing cytokines and chemokines like IFN‐γ.^[ [92] ^] The observed changes in immune activity induced by M029, such as increased tumor infiltration of cytotoxic CD8^+ T cells, enhanced T cell cytotoxicity and effector function, as well as improved NK cell infiltration and activation, collectively contribute to the anticancer effects exerted by M029 treatment.
Figure 6 Cytotoxic T‐cell activity is necessary for M029 antitumor activity. […] C57BL/6 mice were injected with anti‐CD8 or anti‐NK1.1 antibodies every 3–4 days for 8 days after tumor inoculation. Mice were orally dosed with M029 or control vehicle every day for 10 days after tumor inoculation at the same time (Control, n = 4; M029, n = 6; M029 + anti‐NK1.1, n = 6; M029 + anti‐CD8, n = 6). […] This difference implied that the CD8^+ T cells were critical to induce the NK cell infiltration in M029‐treated mice, and the depletion of CD8^+ T cells diminished M029's efficacy because of the absence of activated T cells and infiltrated NK cells. Statistical analyses were performed with Graphpad Prism software 10.4.2 through the student t test or the one‐way ANOVA test using Turkey post‐hoc comparison. *p < 0.05, **p < 0.01, ***p < 0.001, and ****p < 0.0001 were considered significant. Figures are plotted as average ± standard error of the mean (SEM).
Figure S6. Representative flow cytometry results of CD8^+ T/NK cell depletion studies. In the control group and the M029-treated group, CD8^+ T cells make up ~7% of immune cells and NK cells make up ~2% of immune cells. For mice treated with anti-NK1.1 antibody, the NK cell population is negligible (<0.1%). For mice treated with anti-CD8^+ antibody, the CD8^+ T cell population dropped to ~0.1%.
For immune cell profiling in the tumor microenvironment, tumor samples were first reduced to single-cell suspensions by compressing the tumors through a 70 µm filter (Falcon, #352350) into cold 1× PBS supplemented with 5 mM EDTA using the plunger of a syringe (HSW, #4010-200V0). Samples were strained through a second filter and then re-suspended in cold blocking buffer made of 5% BSA, 0.5 mM EDTA, and a 1:1000 dilution of CD16/32. Samples were then incubated with following fluorophore-conjugated antibodies. […]

For `N#Cc1ccsc1NS(=O)(=O)c1ccc(NC(=O)CCl)cc1` [M029, 2-Chloro-N-(4-(N-(3-cyanothiophen-2-yl)sulfamoyl)phenyl)acetamide], the “M029-induced NK cell tumor infiltration after CD8+ T cell depletion” value (M029 + anti-CD8) was “abolishment of the increase in NK cell tumor infiltration”, the “CD8+ T cell population of immune cells” value (flow cytometry, Figure S6) was ~ 7% and the “NK cell population of immune cells” value (flow cytometry, Figure S6) was ~ 2%. The “antitumor efficacy in CD8+ T-cell-depleted mice” value (oral M029 + anti-CD8) was “no antitumor efficacy; also recorded: completely abolished” and the “antitumor effects in NK cell-depleted mice” value (oral M029 + anti-NK1.1) was “remained unaffected; also recorded: did not impact”.
